Assay results from ChEMBL document CHEMBL5223137, “Mapping Ligand Interactions of Bromodomains BRD4 and ATAD2 with FragLites and PepLites─Halogenated Probes of Druglike and Peptide-like Molecular Interactions” (J Med Chem, 2022).

The compounds below were run against T1, ATPase family AAA domain-containing protein 2 (Homo sapiens, UniProt Q6PL18) (assay: Inhibition of His-6 tagged recombinant human ATAD2 (981 to 1108 residues) expressed in Escherichia coli BL21 (DE3) rosetta cells by HTRF assay).
T1 sequence (Q6PL18 whole entry): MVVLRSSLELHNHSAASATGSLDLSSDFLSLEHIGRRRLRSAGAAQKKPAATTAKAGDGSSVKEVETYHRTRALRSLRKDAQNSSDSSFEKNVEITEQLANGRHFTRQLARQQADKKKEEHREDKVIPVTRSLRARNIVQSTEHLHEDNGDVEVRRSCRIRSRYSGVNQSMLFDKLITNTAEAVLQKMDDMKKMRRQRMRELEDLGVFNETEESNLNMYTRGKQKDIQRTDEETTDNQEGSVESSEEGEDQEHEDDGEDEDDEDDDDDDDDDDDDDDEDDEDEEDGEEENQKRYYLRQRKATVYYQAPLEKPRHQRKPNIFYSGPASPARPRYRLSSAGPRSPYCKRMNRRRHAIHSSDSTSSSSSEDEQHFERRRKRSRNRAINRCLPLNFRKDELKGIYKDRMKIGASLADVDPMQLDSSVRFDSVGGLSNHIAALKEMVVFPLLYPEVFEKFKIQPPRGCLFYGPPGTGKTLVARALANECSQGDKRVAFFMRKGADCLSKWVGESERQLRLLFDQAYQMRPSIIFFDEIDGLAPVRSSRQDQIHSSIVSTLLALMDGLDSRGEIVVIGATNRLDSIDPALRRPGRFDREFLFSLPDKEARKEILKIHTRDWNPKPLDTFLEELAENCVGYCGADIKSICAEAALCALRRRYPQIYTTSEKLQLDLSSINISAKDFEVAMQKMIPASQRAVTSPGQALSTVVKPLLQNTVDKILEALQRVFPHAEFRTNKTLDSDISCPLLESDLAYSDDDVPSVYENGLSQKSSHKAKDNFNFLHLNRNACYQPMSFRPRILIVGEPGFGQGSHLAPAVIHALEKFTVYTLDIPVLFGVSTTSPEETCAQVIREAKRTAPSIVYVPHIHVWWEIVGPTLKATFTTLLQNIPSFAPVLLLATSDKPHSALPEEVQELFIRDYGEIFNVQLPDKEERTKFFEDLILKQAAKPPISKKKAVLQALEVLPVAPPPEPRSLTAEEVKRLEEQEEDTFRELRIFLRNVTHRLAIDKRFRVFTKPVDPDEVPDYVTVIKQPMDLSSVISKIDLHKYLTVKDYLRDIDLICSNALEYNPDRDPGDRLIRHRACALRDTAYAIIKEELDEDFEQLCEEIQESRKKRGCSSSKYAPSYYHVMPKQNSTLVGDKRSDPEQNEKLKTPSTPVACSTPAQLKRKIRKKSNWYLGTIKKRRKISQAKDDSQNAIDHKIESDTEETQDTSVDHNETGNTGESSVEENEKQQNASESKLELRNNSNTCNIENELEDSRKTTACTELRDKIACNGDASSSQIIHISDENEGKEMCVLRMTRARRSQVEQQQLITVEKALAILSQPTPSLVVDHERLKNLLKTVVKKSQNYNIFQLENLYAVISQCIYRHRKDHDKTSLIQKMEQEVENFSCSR

| IC50 | Compound |
| --- | --- |
| 55 µM | Cn1ccc(NCc2ccccn2)c(N)c1=O |
| 377 µM | Cn1cc(Br)cc(N)c1=O |
| 822 µM | CN1CCNc2c1ccn(C)c2=O |

| Compound | IC50 |
| --- | --- |
| Cn1cccc(NCC2CCNCC2)c1=O | 543 µM |
